Measurements from patent EP0194905A1, “5',5'''-P1,P4-diadenosine-tetraphosphate alpha-,beta-phosphorylase and its use in the preparation of isotope-labelled nucleotides” (priority 1985, dated 1986).

Experiments:
Ap4A-phosphorylase [1] = molecular target: T1, Ap4A-phosphorylase (Saccharomyces cerevisiae, UniProt P16550); experiment: Ap4A-phosphorylase activity: initial rates of phosphorolysis of Ap4A and related substrates (PEI-cellulose TLC, radioactivity); type: biochemical; details: for substrat de l'Ap4A-phosphorylase (behaviour as substrate): compounds structurally related to Ap4A, in presence of phosphate; for vitesses de phosphorolyse, % du taux observé pour l'Ap4A: standard incubation medium, 500 uM substrate; for conversion de l'Ap4A when phosphate is replaced: 10 mM in place of phosphate, 500 µM MnCl2 or 5 mM MgCl2
T1 construct: l'Ap4A phosphorylase est constituée d'une seule chaîne; endogenous in cells; host or cells: Saccharomyces cerevisiae yeast cells; enzyme purified by ammonium sulfate, DEAE-Sephacel, Sephadex G-100, hydroxyapatite and Sephadex G-75 superfine
T1 sequence (P16550 1-321): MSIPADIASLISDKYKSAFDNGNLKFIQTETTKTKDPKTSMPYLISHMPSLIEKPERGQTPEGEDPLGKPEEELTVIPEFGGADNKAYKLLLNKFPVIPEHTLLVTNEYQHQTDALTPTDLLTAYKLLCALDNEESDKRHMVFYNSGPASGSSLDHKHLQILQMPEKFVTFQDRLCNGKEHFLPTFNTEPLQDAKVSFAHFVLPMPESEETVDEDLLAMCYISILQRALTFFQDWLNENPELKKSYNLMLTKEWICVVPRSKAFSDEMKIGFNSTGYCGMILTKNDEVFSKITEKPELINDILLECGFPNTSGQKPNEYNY
Protocol: (§1) L'activité de l'Ap4A-phosphorylase a été déterminée à 37°C. Le mélange d'incubation standard contenait, dans un volume final de 25 ou 50 µl, du tampon 50 mM acide 4-(2-hydroxyéthyl)-1-pipérazine éthane sulfonique (Hepes)/KOH (pH 8,2), 1 mM 2-mercaptoéthanol, 2 % de glycérol, 500 µM MnCl2, […], 500 uM de [^3H]Ap4A (1 pmol = 20 cpm), de la sérum-albumine bovine (0,4 mg/ml) et une solution d'enzyme diluée de façon appropriée en présence de 2 mg/ml de sérum-albumine bovine. Dans certains cas, l'activité a été suivie à l'aide de [^32P]K2HPO4.
Pour mesurer les vitesses initiales, de phosphorolyse, on a déposé des prélèvements de 2 µl sur des couches minces de polyéthylèneimine-cellulose contenant un indicateur fluorescent (foumies par MERCK) après 2, 4, 8 et 16 min de réaction.
Des standards d'Ap4A et d'ADP ont été ajoutés et les chromatogrammes ont été développés tout d'abord pendant 15 min dans le méthanol à 75 %, puis pendant 1 h dans du chlorure de lithium 0,85 M. Les valeurs Rf des composés standards étaient respectivement de 0,15 (Ap4A) et 0,25 (ADP), la valeur Rf du phosphate était de 0,55. Les taches d'ADP visualisées sous lumière ultraviolette ont été découpées et immergées dans 5 ml de mélange de scintillation et la radioactivité a été mesurée. Au cours des différentes étapes de purification, l'enzyme a été testée en l'absence de radioactivité; les fractions actives ont été afors directement identifiées sur les chromatogrammes sous lumière ultraviolette.
La dégradation enzymatique de l'Ap4A par l'enzyme selon l'invention, c'est-à-dire l'Ap4A-phosphorylase, a été caractérisée par identification des produits de ladite réaction de dégradation par co-migration avec des composés standards authentiques sur des couches minces de polyéthylèneimine-cellulose. Cette identification a été confirmée sur une colonne de Lichrosorb RP-18 (MERCK) en utilisant un système HPLC (chromatographie liquide haute performance) avec une élution isocratique par du phosphate de potassium 25 mM, pH 5,3 selon la méthode de BREVET et al. décrite dans J.Biol.Chem. (1982), 257. 14613-14615. La colonne de chromatographie a été utilisée avec une pompe modèle 112, un injecteur modèle 210 et un détecteur d'absorbance modèle 160 (matériel BECKMAN), en opérant à 254 nm avec une sensibilité de 0,002 unité d'absorbance pleine échelle.

AMP-désaminase = molecular target: T2, AMP-désaminase (Rattus norvegicus, UniProt P10759); details: enzyme from rat muscle; cited from earlier work
T2 construct: host or cells: rat muscle
T2 sequence (P10759 1-747): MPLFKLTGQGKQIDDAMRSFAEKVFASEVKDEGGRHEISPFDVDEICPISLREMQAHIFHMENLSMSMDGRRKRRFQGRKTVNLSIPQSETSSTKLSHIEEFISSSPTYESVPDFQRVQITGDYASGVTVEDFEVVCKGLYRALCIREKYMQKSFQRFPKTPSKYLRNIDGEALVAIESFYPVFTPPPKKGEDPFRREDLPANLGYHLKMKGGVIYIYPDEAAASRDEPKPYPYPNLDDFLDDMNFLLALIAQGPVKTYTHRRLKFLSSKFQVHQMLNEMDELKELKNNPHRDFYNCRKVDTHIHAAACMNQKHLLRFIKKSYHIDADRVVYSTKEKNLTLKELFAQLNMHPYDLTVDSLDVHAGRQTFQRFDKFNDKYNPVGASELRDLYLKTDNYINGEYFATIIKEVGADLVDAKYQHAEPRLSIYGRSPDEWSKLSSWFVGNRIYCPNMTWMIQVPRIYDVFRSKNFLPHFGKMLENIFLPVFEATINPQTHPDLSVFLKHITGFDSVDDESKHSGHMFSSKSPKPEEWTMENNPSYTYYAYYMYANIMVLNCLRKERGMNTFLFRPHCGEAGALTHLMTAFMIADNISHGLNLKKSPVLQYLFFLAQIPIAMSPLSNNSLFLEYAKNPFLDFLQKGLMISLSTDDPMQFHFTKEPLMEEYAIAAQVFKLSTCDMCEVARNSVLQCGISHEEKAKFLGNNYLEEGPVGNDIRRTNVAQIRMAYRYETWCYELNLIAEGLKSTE

Ap4A-phosphorylase [2] = molecular target: T1, Ap4A-phosphorylase; experiment: NDP-P* exchange reaction catalysed by Ap4A-phosphorylase; type: biochemical; details: AMPS versus ADP
Text: (§2) On a estimé les constantes de Michaelis Km et les vitesses d'échange pour différents NDP au pH optimum, lequel varie en fonction des substrats. Les résultats obtenus sont rassemblés dans le tableau Il ci-après ainsi que les conditions expérimentales.

GMP-réductase [3] = details: enzyme from Artemia; cited from earlier work
GMP-réductase [4] = molecular target: T3, GMP-réductase (Homo sapiens, UniProt P36959); details: enzyme from human erythrocytes; cited from earlier work
T3 construct: host or cells: human erythrocytes
T3 sequence (P36959 1-345): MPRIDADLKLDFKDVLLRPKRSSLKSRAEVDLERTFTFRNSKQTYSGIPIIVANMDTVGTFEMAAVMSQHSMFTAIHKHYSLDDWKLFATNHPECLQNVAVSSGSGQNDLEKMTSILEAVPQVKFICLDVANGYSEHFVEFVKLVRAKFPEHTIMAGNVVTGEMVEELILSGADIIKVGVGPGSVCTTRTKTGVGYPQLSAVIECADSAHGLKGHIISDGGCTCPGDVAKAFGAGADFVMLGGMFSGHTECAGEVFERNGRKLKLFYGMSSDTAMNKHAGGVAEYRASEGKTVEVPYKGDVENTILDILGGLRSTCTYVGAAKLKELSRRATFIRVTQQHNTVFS

Ap4A-phosphorylase [5] = molecular target: T1, Ap4A-phosphorylase; experiment: Effect of divalent metal ions on initial rates of Ap4A phosphorolysis; type: biochemical
Protocol: Les vitesses initiales de la phosphorolyse de l'Ap4A ont été mesurées dans un milieu contenant 50 mM Hepes/KOH (pH 8,2); 1 mM de 2-mercaptoéthanol; 2 % de glycérol et 0,4 mg/ml de sérum-albumine bovine, 5 mM K2HPO4; 500 uM [^3H] Ap4A et différentes concentrations de chlorures de manganèse, de magnésium, de calcium, de cobalt ou de cadmium.
Les résultats obtenus sont indiqués sur le graphe de la figure 2 annexée sur lequel on a porté en ordonnées les vitesses initiales de phosphorolyse de l'Ap4A exprimées en pourcentages de la vitesse observée avec 500 uM MnCl2-(36 s-') et en abscisses la concentration en ions métalliques exprimée en mM.
Les différentes courbes correspondent respectivement aux chlorures ci-après : courbe A (O - O) = MnCl2 [formula] [formula] [formula] [formula]

[6] = substrate: Nc1ncnc2c1ncn2[C@@H]1O[C@H](COP(=O)(O)OS(=O)(=O)O)[C@@H](O)[C@H]1O; experiment: purified protein, by the assay type; details: other: NDP-P* exchange at optimum pH, 37°C
[7] = substrate: Nc1ncnc2c1ncn2[C@@H]1O[C@H](COP(=O)(O)OP(=O)(O)OP(=O)(O)OP(=O)(O)OC[C@H]2O[C@@H](n3cnc4c(N)ncnc43)[C@H](O)[C@@H]2O)[C@@H](O)[C@H]1O; experiment: Ap4A-phosphorylase activity: initial rates of phosphorolysis of Ap4A and related substrates (PEI-cellulose TLC, radioactivity); type: biochemical, Saccharomyces cerevisiae; details: other: 37°C, 50 mM Hepes/KOH pH 8,2, 500 µM MnCl2, 10 mM K2HPO4, 1 mM 2-mercaptoéthanol, 2 % glycérol, pH 8.2
Protocol: as §1
Pour mesurer les vitesses initiales, de phosphorolyse, on a déposé des prélèvements de 2 µl sur des couches minces de polyéthylèneimine-cellulose contenant un indicateur fluorescent (foumies par MERCK) après 2, 4, 8 et 16 min de réaction. […]
La dégradation enzymatique de l'Ap4A par l'enzyme selon l'invention, c'est-à-dire l'Ap4A-phosphorylase, a été caractérisée par identification des produits de ladite réaction de dégradation par co-migration avec des composés standards authentiques sur des couches minces de polyéthylèneimine-cellulose. […] La colonne de chromatographie a été utilisée avec une pompe modèle 112, un injecteur modèle 210 et un détecteur d'absorbance modèle 160 (matériel BECKMAN), en opérant à 254 nm avec une sensibilité de 0,002 unité d'absorbance pleine échelle.

[8] = substrate: Nc1ccn([C@@H]2O[C@H](COP(=O)(O)OP(=O)(O)O)[C@@H](O)[C@H]2O)c(=O)n1; experiment: NDP-P* exchange reaction catalysed by Ap4A-phosphorylase; type: biochemical, Saccharomyces cerevisiae; details: other: NDP-P* exchange at optimum pH, 37°C
Text: as §2

[9] = substrate: Nc1nc2c(ncn2[C@@H]2O[C@H](COP(=O)(O)OP(=O)(O)O)[C@@H](O)[C@H]2O)c(=O)[nH]1; experiment: as above; type: biochemical, Saccharomyces cerevisiae; details: other: NDP-P* exchange at optimum pH, 37°C
Text: as §2

[10] = substrate: Nc1ncnc2c1ncn2[C@@H]1O[C@H](COP(=O)(O)OP(=O)(O)O)[C@@H](O)[C@H]1O; experiment: as above; type: biochemical, Saccharomyces cerevisiae; details: other: NDP-P* exchange at optimum pH, 37°C
Text: as §2

[11] = substrate: O=c1ccn([C@@H]2O[C@H](COP(=O)(O)OP(=O)(O)O)[C@@H](O)[C@H]2O)c(=O)[nH]1; experiment: as above; type: biochemical, Saccharomyces cerevisiae; details: other: NDP-P* exchange at optimum pH, 37°C
Text: as §2

Nc1ncnc2c1ncn2[C@@H]1O[C@H](COP(=O)(O)OP(=O)(O)OP(=O)(O)OP(=O)(O)OC[C@H]2O[C@@H](n3cnc4c(N)ncnc43)[C@H](O)[C@@H]2O)[C@@H](O)[C@H]1O (single isomer, unassigned; diad) [Ap4A, 5',5"'-P^1,P^4-diadénosine-tétraphosphate]
vitesse de la réaction de phosphorolyse (Ap4A-phosphorylase [1]; Ap4A saturant): 36 s⁻¹
substrat de l'Ap4A-phosphorylase (behaviour as substrate) (Ap4A-phosphorylase [1]): substrat préféré
effect on activité de l'AMP-désaminase (AMP-désaminase): double l'activité

Nc1ncnc2c1ncn2[C@@H]1O[C@H](COP(=O)(O)OP(=O)(O)OP(=O)(O)OP(=O)(O)OP(=O)(O)OC[C@H]2O[C@@H](n3cnc4c(N)ncnc43)[C@H](O)[C@@H]2O)[C@@H](O)[C@H]1O (single isomer, unassigned; diad) [Ap5A, Diadénosine pentaphosphate]
substrat de l'Ap4A-phosphorylase (behaviour as substrate) (Ap4A-phosphorylase [1]): substrats
vitesses de phosphorolyse, % du taux observé pour l'Ap4A (Ap4A-phosphorylase [1]): 50%

Nc1ncnc2c1ncn2[C@@H]1O[C@H](COP(=O)(O)OP(=O)(O)OP(=O)(O)OC[C@H]2O[C@@H](n3cnc4c(N)ncnc43)[C@H](O)[C@@H]2O)[C@@H](O)[C@H]1O (single isomer, unassigned; diad) [Ap,A, Diadénosine triphosphate]
substrat de l'Ap4A-phosphorylase (behaviour as substrate) (Ap4A-phosphorylase [1]): ne soient pas des substrats

Nc1ncnc2c1ncn2[C@@H]1O[C@H](COP(=O)(O)OS(=O)(=O)O)[C@@H](O)[C@H]1O [AMPS, adénosine 5'-phosphosulfate]
rapport V/km, fold higher than for ADP (Ap4A-phosphorylase [2]): ~5 fois

Nc1nc2c(ncn2[C@@H]2O[C@H](COP(=O)(O)OP(=O)(O)OP(=O)(O)OP(=O)(O)OC[C@H]3O[C@@H](n4cnc5c(=O)[nH]c(N)nc54)[C@H](O)[C@@H]3O)[C@@H](O)[C@H]2O)c(=O)[nH]1 [Gp4G, Diguanosine tétraphosphate]
substrat de l'Ap4A-phosphorylase (behaviour as substrate) (Ap4A-phosphorylase [1]): substrats
vitesses de phosphorolyse, % du taux observé pour l'Ap4A (Ap4A-phosphorylase [1]): 40%
effect on GMP-réductase (GMP-réductase [3]): effet positif spécifique
effect on GMP-réductase (GMP-réductase [4]): effet positif spécifique

Nc1ncnc2c1ncn2[C@@H]1O[C@H](COP(=O)(O)OP(=O)(O)OP(=O)(O)OP(=O)(O)O)[C@@H](O)[C@H]1O [p4A, Adénosine tétraphosphate]
substrat de l'Ap4A-phosphorylase (behaviour as substrate) (Ap4A-phosphorylase [1]): ne soient pas des substrats

MnCl2
vitesse initiale de phosphorolyse de l'Ap4A (Ap4A-phosphorylase [5]; 500 uM MnCl2, 5 mM K2HPO4, 500 uM [3H]Ap4A, pH 8,2 (100 % reference of figure 2)): 36 s-'
activity of metal ions in supporting phosphorolyse de l'Ap4A (Ap4A-phosphorylase [5]; chlorides of Mn, Mg, Ca, Co, Cd at various concentrations (figure 2)): les plus actifs

phosphate
Km (Ap4A-phosphorylase [1]; phosphorolysis of Ap4A, read-out: Km du phosphate): 1000 µM

pyrophosphate
conversion de l'Ap4A when phosphate is replaced (Ap4A-phosphorylase [1]): aucune conversion

sulfate
conversion de l'Ap4A when phosphate is replaced (Ap4A-phosphorylase [1]): aucune conversion

B1: Ap4A-phosphorylase (Saccharomyces cerevisiae S288C) (protein)
chain: T1 sequence (P16550 1-321)
notes: l'Ap4A phosphorylase est constituée d'une seule chaîne; endogenous in cells; host or cells: Saccharomyces cerevisiae yeast cells; enzyme purified by ammonium sulfate, DEAE-Sephacel, Sephadex G-100, hydroxyapatite and Sephadex G-75 superfine
Km [6]: 500 µM
Km [7]: 60 µM
Km [8]: 2800 µM
Km [9]: 700 µM
Km [10]: 740 µM
Km [11]: 3700 µM
